“Also recorded” adds a separate entry of the source.
Experiments:
TLR2 = target: T1, TLR2 (Mus musculus, UniProt Q9QUN7); assay: TLR-2 stimulation, SEAP activity in HEK-Blue mTLR2 cells; type: cell-based
T1 construct: host or cells: HEK293 (HEK-Blue mTLR2)
Method: TLR-2 stimulation. HEK293 cells stably co-transfected with mTLR2 and SEAP (HEK-Blue mTLR2 cells, InvivoGen) were cultivated in Dulbecco's Modified Eagle's Medium supplemented with 4.5 g/I glucose, 10% (v/v) fetal bovine serum, 100 U/ml penicillin, […], […], 2 mM L-glutamine. At 50-80% confluency, cells were seeded in Hek-Blue detection medium (InvivoGen) at a density of 50,000 cells/well in a 96-well plate containing NRs and controls. After 16 h incubation at 37° C. in 5% CO2, absorbance was monitored at 630 nm.

M2e = tested on: M2e; design: species or system BALB/c mice; conditions: mouse, in vivo, sc
[1] = tested on: influenza virus A/PuertoRico/8/34; design: species or system BALB/c mice; conditions: mouse, in vivo

T1 sequence (Q9QUN7 25-784): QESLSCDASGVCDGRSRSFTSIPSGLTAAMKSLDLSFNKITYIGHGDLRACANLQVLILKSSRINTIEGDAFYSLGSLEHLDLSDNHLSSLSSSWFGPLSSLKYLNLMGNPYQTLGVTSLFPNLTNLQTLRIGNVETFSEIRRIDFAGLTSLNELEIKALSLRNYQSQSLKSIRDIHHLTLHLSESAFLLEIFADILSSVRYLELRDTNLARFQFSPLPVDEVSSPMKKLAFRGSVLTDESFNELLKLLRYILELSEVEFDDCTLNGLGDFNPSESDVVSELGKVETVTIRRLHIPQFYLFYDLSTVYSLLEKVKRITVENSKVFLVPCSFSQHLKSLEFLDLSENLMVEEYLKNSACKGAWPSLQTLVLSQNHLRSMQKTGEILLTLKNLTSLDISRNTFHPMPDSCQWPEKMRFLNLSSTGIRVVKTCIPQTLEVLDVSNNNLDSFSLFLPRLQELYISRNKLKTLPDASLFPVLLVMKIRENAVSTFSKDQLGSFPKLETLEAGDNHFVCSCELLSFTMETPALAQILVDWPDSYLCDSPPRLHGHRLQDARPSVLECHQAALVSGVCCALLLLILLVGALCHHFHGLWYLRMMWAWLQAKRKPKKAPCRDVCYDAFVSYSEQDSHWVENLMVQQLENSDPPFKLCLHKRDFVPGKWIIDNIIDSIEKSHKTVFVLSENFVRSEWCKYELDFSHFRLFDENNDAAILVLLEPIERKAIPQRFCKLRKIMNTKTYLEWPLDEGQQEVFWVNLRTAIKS

**Q.** Which SEAP activity (TLR2) does the source give for SLLTEVETPIRNEWGSRSNGSSD [Peptide M2e] here?
**A.** The SEAP activity was “no activity was measured”.

**Q.** What about the “M2e-specific antibody response (IgG)” value (M2e) of the same sequence?
**A.** The value was “did not raise any significant level of epitope-specific IgG; also recorded: very low antibody response; also recorded: significant antibody titer”.

**Q.** What about the mortality [1] of the same sequence?
**A.** Its mortality is 100%.

From patent US20230234991A1, “SELF-ASSEMBLED PEPTIDE NANORODS AND USES THEREOF” (TRANSFERT PLUS, SOCIÉTÉ EN COMMANDITE, priority 2020, published 2023)
